Test results taken from patent EP0359821A1, “METHOD OF STERILIZING PLANT ANTHERS” (priority 1988, dated 1989).

How the values were obtained:
in vivo = conditions: mouse
[1] = system: Diploider Roggen Sorte Chulpan; assay: Field trial of gametocidal activity, diploid rye Chulpan; type: in vivo
From the text: (§1) Bei Weizen und Tritikale werden Einzelisolatoren verwendet.
Pflanzen von diploidem Roggen Sorte Chulpan werden in der V. oder VI.
Der Verbrauch an Sterilisationsmitteln beträgt 10 kg/ha.

[2] = system: Tetraploider Roggen Sorte Belta; assay: Field trial of gametocidal activity, tetraploid rye Belta; type: in vivo; conditions: 1% aqueous emulsion, 10 kg/ha
[3] = system: Hirse Sorte Mironovskoe 94; assay: Field trial of gametocidal activity, millet Mironovskoe 94; type: in vivo; conditions: 1% aqueous emulsion, 10 kg/ha; for percent pollen sterility at 10000 g/ha: read-out: Prozentsatz der Sterilität; for response vs control in vivo at 10000 g/ha: control = 100, read-out: Prozentsatz des Ansetzens bei freier Bestäubung
[4] = system: Tetraploider Roggen Sorte Jubileinaya; assay: Field trial of gametocidal activity, tetraploid rye Jubileinaya; conditions: 1% aqueous emulsion, 10 kg/ha; for Prozentsatz des Ansetzens bei freier Bestäubung: control = 100
[5] = system: Sommerweizen Sorte Moskovskaya 35; assay: Field trial of gametocidal activity, spring wheat; type: in vivo, Weizen; conditions: 1% aqueous emulsion; for Anzahl von Körnern der Ähre bei freier Bestäubung / Anzahl von Körnern der Ähre im Isolator / percent sterility at 10000 g/ha: V. period; for percent sterility at 10000 g/ha: read-out: Prozentsatz der Sterilität
[6] = system: Diploider Roggen Sorte Gibrid 1864/74; assay: Field trial of gametocidal activity, diploid rye Gibrid 1864/74; conditions: 1% aqueous emulsion, 10 kg/ha
[7] = system: Winterweizens Sorte Mironovskaya 808; assay: Field trial of gametocidal activity (anther sterilisation), winter wheat; type: in vivo, Weizen; conditions: 2% aqueous emulsion, 20 kg/ha
Tritikale Sorte PRAG I09 = assay: Field trial of gametocidal activity, triticale; type: in vivo; conditions: 1% aqueous emulsion, 12 kg/ha
From the text: as §1
Pflanzen von Tritikale Sorte PRAG I09 werden in der V. und VI.
Der Verbrauch an Sterilisationsmittel beträgt 12 kg/ha.

[8] = system: Tetraploider Roggen Sorte Ukrainskaya tetra; assay: Field trial of gametocidal activity, tetraploid rye Ukrainskaya tetra; type: in vivo; conditions: 1% aqueous emulsion, 10 kg/ha
[9] = system: Diploider Roggen Sorte Kharkovskaya 55; assay: Field trial of gametocidal activity, diploid rye Kharkovskaya 55; conditions: 1% aqueous emulsion, 6 kg/ha
Roggen Sorte Voskhod 2 = assay: Field trial of gametocidal activity, diploid rye Voskhod 2; type: in vivo; conditions: 1% aqueous emulsion, 8 kg/ha
[10] = Chulpan, single compounds, 1% aqueous emulsion, 10 kg/ha, V. or VI. period
[11] = control = 100, read-out: Prozentsatz des Ansetzens bei freier Bestäubung
[12] = V. or VI. period of organogenesis

O=C(O)c1ccccc1C(=O)O [Beispiel 55, Phthalsäuremonoäthanolaminsalz]
LD50 (in vivo): 1100 mg/kg | Anzahl von Körnern der Ähre bei freier Bestäubung [1, 10]: 55,6 | Anzahl von Körnern der Ähre im Isolator [1, 10]: 3,1 | pest or weed control at 10000 g/ha ([1]; read-out: Prozentsatz der Sterilität): 94% | response vs control in vivo at 10000 g/ha ([1]; read-out: Prozentsatz des Ansetzens bei freier Bestäubung): 98.1% | Anzahl von Körnern der Ähre bei freier Bestäubung ([2]; V. or VI. period): 44,0 | Anzahl von Körnern der Ähre im Isolator ([2]; V. or VI. period): 0,3 | percent sterility at 10000 g/ha ([2]; V. or VI. period, read-out: Prozentsatz der Sterilität): 99.3% | response vs control in vivo at 10000 g/ha [2, 11]: 99.3% | Anzahl von Körnern der Rispe bei freier Bestäubung ([3]; V. or VI. period): 350,9 | Anzahl von Körnern der Rispe im Isolator ([3]; V. or VI. period): 0,0 | percent pollen sterility at 10000 g/ha ([3]; V. or VI. period): 100% | response vs control in vivo at 10000 g/ha [3]: 92.5% | Anzahl von Körnern der Ähre bei freier Bestäubung ([4]; V. or VI. period): 46,0 | Anzahl von Körnern der Ähre im Isolator ([4]; V. or VI. period): 0,0 | Prozentsatz des Ansetzens bei freier Bestäubung [4]: 95,0%

OCC(O)COc1ccc(F)cc1 (stereo not drawn) [Beispiel 4]
LD50 (in vivo; LD50, weisse Mäuse): 400 to 600 mg/kg | Anzahl von Körnern der Ähre bei freier Bestäubung ([5]; 10 kg/ha): 25,9 | Anzahl von Körnern der Ähre im Isolator ([5]; 10 kg/ha): 0,4 | percent sterility at 10000 g/ha ([5]; 10 kg/ha): 98.6% | response vs control in vivo [5, 11]: 94.2% | Anzahl von Körnern der Ähre bei freier Bestäubung ([6]; V. period): 42,8 | Anzahl von Körnern der Ähre im Isolator ([6]; V. period): 0,0 | Prozentsatz der Sterilität ([6]; V. period): 100% | Prozentsatz des Ansetzens bei freier Bestäubung ([6]; control = 100): 88,2% | Anzahl von Körnern der Ähre bei freier Bestäubung [7, 12]: 30,6 | Anzahl von Körnern der Ähre im Isolator [7, 12]: 0,0 | response vs control in vivo at 20000 g/ha [7, 11]: 75.4%

NCCO.O=CO [Beispiel 48, Monoäthanolaminsalz der Ameisensäure]
Anzahl von Körnern der Ähre bei freier Bestäubung [1, 10]: 55,2 | Anzahl von Körnern der Ähre im Isolator [1, 10]: 1,2 | Prozentsatz der Sterilität [1, 10]: 97,7% | Prozentsatz des Ansetzens bei freier Bestäubung ([1]; Chulpan, single compounds, 1% aqueous emulsion, 10 kg/ha, control = 100): 97,4% | Prozentsatz der Sterilität (Tritikale Sorte PRAG I09; V. and VI. period): 99,9% | Prozentsatz des Ansetzens bei freier Bestäubung (Tritikale Sorte PRAG I09; control = 100): 92,9% | Anzahl von Körnern der Rispe bei freier Bestäubung ([3]; V. or VI. period): 352,2 | Anzahl von Körnern der Rispe im Isolator ([3]; V. or VI. period): 0,0 | Prozentsatz der Sterilität ([3]; V. or VI. period): 100% | Prozentsatz des Ansetzens bei freier Bestäubung ([3]; control = 100): 92,8%

O=C(O)c1ccccc1 [Beispiel 31, Äthanolaminsalz der Benzoesäure]
LD50 (in vivo): 4100 mg/kg | Anzahl von Körnern der Ähre bei freier Bestäubung ([8]; V. or VI. period): 44,0 | Anzahl von Körnern der Ähre im Isolator ([8]; V. or VI. period): 0,8 | Prozentsatz der Sterilität ([8]; V. or VI. period): 98,2% | Prozentsatz des Ansetzens bei freier Bestäubung ([8]; control = 100): 99,5% | Anzahl von Körnern der Ähre bei freier Bestäubung ([9]; V. and VI. periods): 43,7 | Anzahl von Körnern der Ähre im Isolator ([9]; V. and VI. periods): 0,9 | Prozentsatz der Sterilität ([9]; V. and VI. periods): 97,9% | Prozentsatz des Ansetzens bei freier Bestäubung ([9]; control = 100): 96,9%

OCC(O)COc1ccccc1F (stereo not drawn) [Beispiel 21, 3-(2'-Fluorophenoxy)-propandiol-1,2]
Anzahl von Körnern der Ähre bei freier Bestäubung ([5]; 10 kg/ha): 26,2 | Anzahl von Körnern der Ähre im Isolator ([5]; 10 kg/ha): 0,1 | percent sterility at 10000 g/ha ([5]; 10 kg/ha): 99.9% | response vs control in vivo at 10000 g/ha ([5]; 10 kg/ha, control = 100, read-out: Prozentsatz des Ansetzens bei freier Bestäubung): 95.3% | Anzahl von Körnern der Ähre bei freier Bestäubung ([2]; V. or VI. period): 40,7 | Anzahl von Körnern der Ähre im Isolator ([2]; V. or VI. period): 0,0 | Anzahl von Körnern der Rispe bei freier Bestäubung ([3]; V. or VI. period): 307,5 | Anzahl von Körnern der Rispe im Isolator ([3]; V. or VI. period): 0,0 | percent pollen sterility at 10000 g/ha ([3]; V. or VI. period): 100% | response vs control in vivo at 10000 g/ha [3]: 81% | Anzahl von Körnern der Ähre im Isolator ([4]; V. or VI. period): 0,0 | Prozentsatz des Ansetzens bei freier Bestäubung [4]: 97,5% | Anzahl von Körnern der Ähre bei freier Bestäubung (Roggen Sorte Voskhod 2; V. or VI. period): 46,8 | Anzahl von Körnern der Ähre im Isolator (Roggen Sorte Voskhod 2; V. or VI. period): 0,3 | Prozentsatz der Sterilität (Roggen Sorte Voskhod 2; V. or VI. period): 99,4% | Prozentsatz des Ansetzens bei freier Bestäubung (Roggen Sorte Voskhod 2; control = 100): 85,7%
